Measurements from PMC10377034, “Syntheses of 25-Adamantyl-25-alkyl-2-methylidene-1α,25-dihydroxyvitamin D3 Derivatives with Structure–Function Studies of Antagonistic and Agonistic Active Vitamin D Analogs” (Biomolecules, 2023).

How the values were obtained:
[1] = tested on: human dedifferentiated fat (DFAT) cells; test: Osteogenic differentiation assay: ALP activity in human DFAT cells; assay type: cell-based; details: osteogenic medium, 100 nM, 7 days, natural hormone 1 = 100%
recombinant hVDR-LBD [2] = target: T1, recombinant hVDR-LBD (Homo sapiens, UniProt P11473); details: relative to 1,25(OH)2D3
T1 sequence (P11473 140-427): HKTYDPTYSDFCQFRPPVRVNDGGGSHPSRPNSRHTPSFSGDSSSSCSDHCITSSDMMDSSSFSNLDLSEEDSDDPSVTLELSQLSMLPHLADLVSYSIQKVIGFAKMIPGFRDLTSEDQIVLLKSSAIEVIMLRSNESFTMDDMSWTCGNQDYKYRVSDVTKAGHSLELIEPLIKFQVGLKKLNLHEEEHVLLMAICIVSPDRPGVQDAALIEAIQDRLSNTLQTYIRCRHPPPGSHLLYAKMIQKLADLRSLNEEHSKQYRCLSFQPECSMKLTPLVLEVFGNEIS
Experimental: (§1) The pGEX-hVDR and pGEX were expressed for a GST-VDR fusion protein and a control GST protein, respectively, in Escherichia coli BL21 (Merck, Darmstadt, Germany). The bacteria were lysed by sonication in a sonication buffer (50 mM Tris-HCl, pH 8.0, 50 mM NaCl, 1 mM EDTA, and 1 mM DTT). The supernatant proteins (1 μg) were diluted in a binding buffer (25 mM Tris, pH 7.5, 100 mM KCl, 25 mM DTT, 4 mM CHAPS, pH 7.5) containing bovine serum albumin (100 μg/mL). A solution containing each test compound in 15 μL of EtOH was added to 570 μL of the GST protein solution in each tube. After being vortexed 2–3 times, the mixture was incubated for 30 min at room temperature. […] After being vortexed 2–3 times, the whole mixture was allowed to stand at 4 °C for 20 h, and 400 μL of dextran-coated charcoal solution (Sigma) was added to remove free ligands.
(§2) All values represent the means, and error bars are the standard deviations derived from triplicate assays.

recombinant hVDR-LBD [3] = target: T1, recombinant hVDR-LBD; test: biochemical
Experimental: as §1, §2

[4] = tested on: CYP24A1 expression in U937 cells; test: CYP24A1 expression (RT-qPCR) in U937 cells; details: U937 blood cells, 100 nM, 24 h
Experimental: (§3) SW480 human colon carcinoma cells (American Type Culture Collection, Manassas, VA) and HaCaT immortalized keratinocyte cells (kindly provided by Dr. Tadashi Terui, Department of Dermatology, Nihon University School of Medicine) were cultured in DMEM containing 10% FBS, 100 U/mL penicillin, and 0.1 mg/mL streptomycin. […] All cells were cultured at 37 °C in a humidified atmosphere containing 5% CO2.
(§4) For gene expression analysis, 1 × 10^4 cells per well were plated in a 24-well plate. After 24 h, the cells were treated with an ethanol control or 100 nM of each test compound for 24 h. The total RNAs from the samples were extracted using the acid guanidine thiocyanate phenol/chloroform method [57], and cDNAs were synthesized using the ImProm-II reverse transcription system (Promega, Madison, WI) [43]. Real-time PCR was performed on the ABI PRISM 7000 sequence detection system (Thermo Fisher Scientific, Waltham, MA, USA) using Power SYBR Green PCR master mix (Thermo Fisher Scientific).
(§5) One-way ANOVA followed by Turkey’s multiple comparisons: ※ p < 0.05, ※※ p < 0.01, ※※※ p < 0.001 versus vehicle control.

[5] = tested on: CYP24A1 expression in MG63 cells; test: CYP24A1 expression (RT-qPCR) in MG63 cells; details: MG63 bone cells, 100 nM, 24 h
Experimental: (§6) HEK293 human kidney cells (RIKEN Cell Bank, Tsukuba, Japan) were cultured in Dulbecco’s modified Eagle’s medium (DMEM) (Fujifilm Wako Pure Chemical Corporation, Tokyo, Japan) containing 5% fetal bovine serum (FBS), 100 U/mL penicillin, and 0.1 mg/mL streptomycin (Nacalai Tesque, Kyoto, Japan). SW480 human colon carcinoma cells (American Type Culture Collection, Manassas, VA) and HaCaT immortalized keratinocyte cells (kindly provided by Dr. Tadashi Terui, Department of Dermatology, Nihon University School of Medicine) were cultured in DMEM containing 10% FBS, 100 U/mL penicillin, and 0.1 mg/mL streptomycin. MG63 human osteosarcoma cells (RIKEN Cell Bank) and lung-derived H292 cells (American Type Culture Collection) were cultured in minimum essential medium containing 10% FBS, 100 U/mL penicillin, and 0.1 mg/mL streptomycin. […] All cells were cultured at 37 °C in a humidified atmosphere containing 5% CO2.
(§7) For gene expression analysis, 1 × 10^4 cells per well were plated in a 24-well plate. After 24 h, the cells were treated with an ethanol control or 100 nM of each test compound for 24 h. […] Real-time PCR was performed on the ABI PRISM 7000 sequence detection system (Thermo Fisher Scientific, Waltham, MA, USA) using Power SYBR Green PCR master mix (Thermo Fisher Scientific).

[6] = tested on: CYP24A1 expression in H292 cells; test: CYP24A1 expression (RT-qPCR) in H292 cells; details: H292 lung cells, 100 nM, 24 h
Experimental: as §6, §7

[7] = tested on: CYP24A1 expression in SW480 cells; test: CYP24A1 expression (RT-qPCR) in SW480 cells; details: SW480 intestine cells, 100 nM, 24 h
Experimental: as §6, §7

[8] = tested on: CYP24A1 expression in HaCaT cells; test: CYP24A1 expression (RT-qPCR) in HaCaT cells; details: HaCaT skin cells, 100 nM, 24 h
Experimental: as §3, §4, §5

[9] = tested on: CYP24A1 expression in HEK293 cells; test: CYP24A1 expression (RT-qPCR) in HEK293 cells; details: HEK293 kidney cells, 100 nM, 24 h
Experimental: as §6, §7

VDR with RXRα = target: T2, VDR with RXRα (Homo sapiens, UniProt P11473); test: Mammalian two-hybrid assay, interaction of the VDR with RXRα
T2 sequence (P11473 1-427): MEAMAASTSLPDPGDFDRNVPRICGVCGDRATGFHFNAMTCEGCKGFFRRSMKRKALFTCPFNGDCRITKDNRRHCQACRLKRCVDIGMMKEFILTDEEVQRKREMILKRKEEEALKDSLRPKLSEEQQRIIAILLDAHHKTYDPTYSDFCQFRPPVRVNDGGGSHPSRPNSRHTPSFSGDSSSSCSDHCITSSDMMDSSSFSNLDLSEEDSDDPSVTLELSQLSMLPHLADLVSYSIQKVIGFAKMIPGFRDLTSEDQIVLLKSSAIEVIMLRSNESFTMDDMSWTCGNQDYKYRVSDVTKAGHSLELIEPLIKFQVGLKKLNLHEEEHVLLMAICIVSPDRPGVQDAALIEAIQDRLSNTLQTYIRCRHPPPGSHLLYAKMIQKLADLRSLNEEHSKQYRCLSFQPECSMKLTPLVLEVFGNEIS
T2 sequence (P19793 1-462 partner): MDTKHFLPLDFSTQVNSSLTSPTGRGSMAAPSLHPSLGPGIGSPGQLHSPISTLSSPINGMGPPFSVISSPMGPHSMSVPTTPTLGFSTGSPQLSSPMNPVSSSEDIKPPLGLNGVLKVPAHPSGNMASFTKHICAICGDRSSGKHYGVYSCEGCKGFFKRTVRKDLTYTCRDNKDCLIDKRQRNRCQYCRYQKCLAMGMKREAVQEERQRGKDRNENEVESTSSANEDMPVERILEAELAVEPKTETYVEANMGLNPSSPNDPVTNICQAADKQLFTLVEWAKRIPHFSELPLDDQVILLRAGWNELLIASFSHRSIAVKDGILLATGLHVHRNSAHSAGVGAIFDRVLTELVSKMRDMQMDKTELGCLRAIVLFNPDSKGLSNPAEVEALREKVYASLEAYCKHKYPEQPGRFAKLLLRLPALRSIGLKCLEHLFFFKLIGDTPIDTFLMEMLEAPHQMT
Experimental: (§8) We used the expression plasmids pCMX-VDR, pCMX-VP16- VDR, pCMX-GAL4-RXRα, pCMX-GAL4-SRC-1, and pCMX-GAL4- N-CoR, as reported previously [43]. […] We used luciferase reporters: VDR-responsive Sppx3-tk-LUC and GAL4-responsive MH100(UAS) × 4-tk-LUC reporters [43].
(§9) Transfections of 50 ng of TK-Spp × 3-LUC reporter plasmid, 10 ng of pCMX-β-galactosidase, and 15 ng of pCMX-VDR for each well of a 96-well plate were performed in HEK293 cells using the calcium phosphate coprecipitation method, as described previously [43]. The mammalian two-hybrid assay for cofactor interaction with VDR used 50 ng of TK-MH100(UAS) × 3- LUC reporter plasmid, 10 ng of pCMX-β-galactosidase, 15 ng of pCMX-GAL4-RXRα, pCMX-GAL4-SRC1, or pCMX-GAL4-NCoR, and 15 ng of pCMX-VP16-VDR for each well of a 96-well plate. Luciferase and β-galactosidase activities were measured with a luminometer and a microplate reader (Molecular Devices, Sun Jose, CA, USA), respectively. Luciferase values were normalized to the internal β-galactosidase control.
(§10) (B) Effects on the interactions between the VDR and SRC-1. HEK293 cells were co-transfected with CMX-GAL4-SRC-1, CMX-VP16-VDR, and MH100 (UAS) × 4-tk-LUC and were treated with each compound over a range of concentrations. (C) Effects on interactions of the VDR with NCoR-1. HEK293 cells were co-transfected with CMX-GAL4-N-CoR in combination with CMX-VP16-VDR and MH100 (UAS) × 4-tk-LUC and were treated with each compound over a range of concentrations.

VDR with NCoR = target: T3, VDR with NCoR (Homo sapiens, UniProt P11473); test: Mammalian two-hybrid assay, dissociation of NCoR from the VDR
T3 sequence (P11473 1-427): T2 sequence (P11473 1-427)
Experimental: as §8, §9, §10

VDR affinity, % of that of 1,25(OH)2D3 (recombinant hVDR-LBD [2]): 23%
IC50 (recombinant hVDR-LBD [3]): 1.6 nM
VDR-RXRα interaction EC50 (VDR with RXRα; HEK293 cells, two-hybrid): second-highest activity
VDR-RXRα interaction efficacy (VDR with RXRα; compared to natural hormone 1): 114%
IC50 (VDR with NCoR): 0.4 nM
Compound: C=C1[C@H](O)CC(=C/C=C2\CCC[C@]3(C)[C@@H]([C@H](C)CC#C[C@](O)(CCCC)C45CC6CC(CC(C6)C4)C5)CC[C@@H]23)C[C@H]1O [ADKM6, (25S)-25-(1-Adamantyl)-1α,25-dihydroxy-2-methylidene-26-propyl-23-yne-19,27-dinorvitamin D3]
ALP activity [1]: 62.4%
CYP24A1 expression relative to natural hormone 1 [4]: 77.2%
CYP24A1 expression relative to natural hormone 1 [5]: 54.2%
CYP24A1 expression relative to natural hormone 1 [6]: 87.9%
CYP24A1 expression relative to natural hormone 1 [7]: 72.9%
CYP24A1 expression relative to natural hormone 1 [8]: 72.5%
CYP24A1 expression relative to natural hormone 1 [9]: 61.4%
